According to patent US11421145B2, “Oil recovery methods using a formulation containing an unsaturated zwitterionic surfactant and a polymer” (King Fahd University of Petroleum and Minerals, priority 2019, dated 2022):

Test: Interfacial tension between crude oil and water, spinning drop tensiometer
Assay type: physicochemical
Details: for IFT after aging: after aging at 90° C. for 2 weeks
From the text: API gravity and molecular weight of the oil were 30 and 251 g mol^−1, respectively.
where γ0 is the surface tension of the brine (FW or SW), NA is the Avogadro number, dγ/dlnC is the slope below CMC in the surface tension plot, C is the surfactant concentration in brine, T is temperature, R is the gas constant, and n=1 for zwitterionic surfactants [Wang, Y., Zhang, Y., Liu, X., Wang, J., Wei, L., & Feng, Y. (2014) Effect of a hydrophilic head group on Krafft temperature, surface activities and rheological behaviors of Erucyl Amidobetaines. Journal of Surfactants and Detergents, 17:295-301—incorporated herein by reference]. The interfacial tension between crude oil and water was measured using a spinning drop tensiometer from Kruss (SITE 100). All the reported points are the average equilibrium values.
Interfacial tension is one of the main parameters to assess the performance of surfactants for EOR application. Interfacial tension depends on several parameters such as the nature of the crude oil, salinity, temperature, pH, surfactant type and its molecular structure, surfactant concentration, and residence time of the surfactant inside the reservoir. […] The spinning drop tensiometer can measure ultra-low IFT down to 10^−4 mN m^−1 at various temperatures. This equipment could go up to 90° C., but it was difficult to get a stable drop due to bubble formation, therefore the IFT calculated at 90° C. might not be an accurate representation. Therefore, measuring IFT at high temperature was avoided and another strategy was adopted. Specifically, several solutions at field conditions (90° C.) were aged for 2 weeks and then their IFT was compared with that of the original solution. The water/oil IFT was initially >9 mN m^1 in both FW and SW. […] The low CMC is advantageous because the same IFT reduction can be achieved at a very low surfactant concentration. In addition, IFT will not change considerably because of surfactant adsorption. In general, no considerable change in IFT was detected within the investigated temperatures and salinities. […] Canadian Journal of Chemical Engineering, 94:454-460; and Li, P., Yang, C., Cui, Z., Song, B., Jiang, J., & Wang, Z. (2016) A new type of sulfobetaine surfactant with double alkyl polyoxyethylene ether chains for enhanced oil recovery. Journal of Surfactants and Detergents, 19:967-977, each incorporated herein by reference in their entirety]. […] Journal of Surfactants and Detergents, 20:777-788; and Hussain, S. S., Kamal, M. S., & Sultan, A. S. (2017) Amido-amine-based cationic Gemini surfactants: Thermal and interfacial properties and interactions with cationic polyacrylamide. Journal of Surfactants and Detergents, 20:47-55, each incorporated herein by reference in their entirety].

[1] = 0.02 wt. % surfactant, FW, 60° C.
[2] = 0.02 wt. % surfactant, SW, 30° C.
[3] = 0.05 wt. % surfactant, FW, 60° C.
[4] = 0.05 wt. % surfactant, SW, 30° C.

## CCCCCCCC/C=C\CCCCCCCC(=O)NCCC[N+](C)(C)CCCS(=O)(=O)[O-] [unsaturated surfactant, 3-(N-oleamidopropyl-N,N-dimethylammonium) propane sulfonate]
0.01 wt. % surfactant, FW, 60° C.
  IFT: 0.33 mN m^−1
0.01 wt. % surfactant, SW, 30° C.
  IFT: 0.31 mN m^−1
0.01 wt. % surfactant, SW, 60° C.
  IFT: 0.36 mN m^−1
[1]
  IFT: 0.25 mN m^−1
  IFT after aging: 0.27 mN m^−1
[2]
  IFT: 0.21 mN m^−1
  IFT after aging: 0.29 mN m^−1
0.02 wt. % surfactant, SW, 60° C.
  IFT: 0.27 mN m^−1
[3]
  IFT: 0.23 mN m^−1
  IFT after aging: 0.26 mN m^−1
[4]
  IFT: 0.25 mN m^−1
  IFT after aging: 0.29 mN m^−1
0.05 wt. % surfactant, SW, 60° C.
  IFT: 0.31 mN m^−1
0.075 wt. % surfactant, FW, 60° C.
  IFT: 0.24 mN m^−1
0.075 wt. % surfactant, SW, 30° C.
  IFT: 0.21 mN m^−1
0.075 wt. % surfactant, SW, 60° C.
  IFT: 0.30 mN m^−1
0.1 wt. % surfactant, FW, 60° C.
  IFT: 0.28 mN m^−1
0.1 wt. % surfactant, SW, 30° C.
  IFT: 0.22 mN m^−1
0.1 wt. % surfactant, SW, 60° C.
  IFT: 0.31 mN m^−1
0.2 wt. % surfactant, FW, 60° C.
  IFT: 0.27 mN m^−1
0.2 wt. % surfactant, SW, 30° C.
  IFT: 0.23 mN m^−1
0.2 wt. % surfactant, SW, 60° C.
  IFT: 0.32 mN m^−1
FW and SW, initial IFT >9
  decrease in water/oil IFT on addition of surfactant: almost two orders of magnitude
Not affected much by temperature and salinity
  oil/water IFT, order of magnitude: ~10^−1 mN m^−1
Solutions aged at 90° C. for 2 weeks
  change of water/oil IFT after aging: did not change
